Results taken from US11090292B2, “Compositions and methods of use of an inappetance-controlling compound” (Aratana Therapeutics, Inc., priority 2012, dated 2021).

Tests used:
IGF-1 = test: Example 4: serum IGF-1 concentration; type: in vivo, Beagle dogs
Description: (§1) A controlled, seven-day study was performed to assess the impact of different capromorelin-dosing regimens on the production of IGF-1, GH, and cortisol. The different capromorelin-dosing regimens were also assessed for the impact on food intake and changes in body mass.
(§2) […] were divided into one of three treatment groups, with one negative control group and two active treatment groups. Each of the three treatment groups included three males and three females. The first group received a placebo formulation (i.e., deionized water) twice per day, via oral gavage. The second group received a once-daily dose of the capromorelin composition at a concentration of 3 mg/kg, via oral gavage. The third group received a twice-daily dose of the capromorelin composition at a concentration of 3 mg/kg, via oral gavage.
(§3) During the ten day study period, on an at least once-daily basis, each of the dogs was monitored for clinical observations, mortality, moribundity, body mass, acceptability/palatability, and food consumption. Serum samples were taken to measure capromorelin concentration, GH concentration, IGF-1 concentration, and cortisol concentration. Serum samples were taken on days 1, 2, 4, and 7 at −15 minutes (pre-dose), immediately prior to dosing (0 minutes) and 30, 45, 60, 90, 120, 240, 360, and/or 480 minutes post dosing. Additional serum samples were taken at 8 AM on Day 10 of the study to assess long-term impact of the active treatments.

[1] = Example 4: capromorelin concentration in serum; type: in vivo; conditions: Days 1 and 7, 3 mg/kg once or twice daily
Description: as §1, §2
as §3, with “Additional serum samples were taken at 8 AM on Day 10 of the study to assess long-term impact of the active treatments.” left out

[2] = Example 9: clinical observations / toxicological responses; type: in vivo; conditions: injection 0.75 or 2 mg/kg, oral 2 or 4 mg/kg, once daily
Description: During the seven day study period, on an at least once-daily basis, each of the cats was monitored for clinical observations, mortality, moribundity, body mass, acceptability/palatability, and food consumption. Serum samples were taken to measure capromorelin concentration, IGF-1 concentration, and cortisol concentration. Serum samples were taken on days 1 and 4 immediately prior to dosing (0 minutes) and 30, 60, 90, 120, 240, 360, and/or 480 minutes post dosing. Additional serum samples were taken at 8 AM on Day 7 of the study to assess long-term impact of the active treatments.

cortisol [3] = test: Example 9: serum cortisol concentration; type: in vivo, cats; conditions: day 4
Description: A four-day study was performed to further assess the pharmacokinetics of formulation 8 from Example 3 (i.e., the most “well-accepted” formulation) in cats. Moreover, the administration of formulation 8 was also analyzed to determine if administration of this formulation could induce sustained production of IGF-1 and relatively depressed, mitigated, or lower levels of cortisol. The different capromorelin-dosing regimens were also assessed for the impact on food intake and changes in body mass.
Twenty-four adult cats were divided into one of four treatment groups, with all four groups as active treatment groups. Each of the active treatment groups included 6 cats. The first group received a sterile injection of a capromorelin composition containing a 0.75 mg/kg concentration of capromorelin once per day during the four-day experiment. The second group received a once-daily sterile injection of a capromorelin composition at a concentration of 2 mg/kg. The third group received a once-daily dose of a capromorelin composition at a concentration of 2 mg/kg, via oral gavage. […]
During the seven day study period, on an at least once-daily basis, each of the cats was monitored for clinical observations, mortality, moribundity, body mass, acceptability/palatability, and food consumption. […]

cortisol [4] = test: Example 1: serum cortisol concentration; type: in vivo, Beagle dogs; conditions: approximately 0.5 h post treatment, days 1, 2 and 7
Description: A controlled, seven-day study was performed to assess the impact of different capromorelin-dosing regimens on the production of insulin-like growth factor 1 (hereinafter “IGF-1”), growth hormone (hereinafter “GH”), and cortisol. The different capromorelin-dosing regimens were also assessed for the impact on food intake and changes in body mass.
Eighteen adult non-naïve Beagle dogs (nine males and nine females) were divided into one of three treatment groups. Each of the three treatment groups included three males and three females. Group A, which was the control group, was dosed twice per day, via oral gavage, with a vehicle (deionized water alone) and was used as a baseline data point for comparison against the active treatment regimens. Group B comprised an active treatment group that received two treatments per day, via oral gavage, with a capromorelin-containing composition with a concentration of 3 mg/kg capromorelin per treatment. Finally, Group C comprised an active treatment group that received one treatment per day, via oral gavage, with a capromorelin-containing composition with a concentration of 6 mg/kg capromorelin per treatment.
During the ten day study period, on an at least once-daily basis, each of the dogs was monitored for clinical observations, mortality, morbidity, body mass, and food consumption. […]

CN1N=C2CCN(C(=O)[C@@H](COCc3ccccc3)NC(=O)C(C)(C)N)C[C@@]2(Cc2ccccc2)C1=O.O=C(O)C(O)C(O)C(=O)O [capromorelin]
serum IGF-1 levels versus deionized water three days after terminating treatment (IGF-1; Day 10): not significantly different
increase in serum IGF-1 concentration at eight hours post administration relative to time 0 (IGF-1; once-daily 3 mg/kg, day 1): approximately 83.9%
increase in serum IGF-1 concentration at eight hours post administration relative to time 0 (IGF-1; once-daily 3 mg/kg, day 4): approximately 39.5%
increase in serum IGF-1 concentration at eight hours post administration relative to time 0 (IGF-1; once-daily 3 mg/kg, day 7): ~36.8%
increase in serum IGF-1 concentration at eight hours post administration relative to time 0 (IGF-1; twice-daily 3 mg/kg, day 1): approximately 50.6%
increase in serum IGF-1 concentration at eight hours post administration relative to time 0 (IGF-1; twice-daily 3 mg/kg, day 4): approximately 15.4%
increase in serum IGF-1 concentration at eight hours post administration relative to time 0 (IGF-1; twice-daily 3 mg/kg, day 7): ~13.3%
serum capromorelin by eight hours after administration [1]: decreased to near undetectable levels
time after dosing at which serum capromorelin begins rising [1]: approximately 0.5 h
toxicological responses [2]: no toxicological responses were noted
increases in cortisol serum levels relative to day 1 (cortisol [3]): mitigated on day 4
cortisol concentrations in the serum relative to deionized water (cortisol [4]): increased
